Results as given in patent US20130165428A1, “XANTHINE DERIVATIVES, THE PREPARATION THEREOF AND THEIR USE AS PHARMACEUTICAL COMPOSITIONS” (Boehringer Ingelheim Pharma GmbH & Co. KG, priority 2001, published 2013).
Read-outs that look alike come from different tables or passages of the source.

What was measured:
[1] = biological target: T1, DPP-IV (Homo sapiens, UniProt P27487); experiment: DPP-IV assay with extract of Caco-2 cells as DPP IV source; format: biochemical; conditions: read-out: DPP IV inhibition IC50
T1 construct: an extract of the human colon carcinoma cell line Caco-2 is used as the DPP IV source; host or cells: Caco-2 (differentiated to induce DPP-IV expression), Nonidet-P40 solubilised extract
T1 sequence (P27487 whole entry): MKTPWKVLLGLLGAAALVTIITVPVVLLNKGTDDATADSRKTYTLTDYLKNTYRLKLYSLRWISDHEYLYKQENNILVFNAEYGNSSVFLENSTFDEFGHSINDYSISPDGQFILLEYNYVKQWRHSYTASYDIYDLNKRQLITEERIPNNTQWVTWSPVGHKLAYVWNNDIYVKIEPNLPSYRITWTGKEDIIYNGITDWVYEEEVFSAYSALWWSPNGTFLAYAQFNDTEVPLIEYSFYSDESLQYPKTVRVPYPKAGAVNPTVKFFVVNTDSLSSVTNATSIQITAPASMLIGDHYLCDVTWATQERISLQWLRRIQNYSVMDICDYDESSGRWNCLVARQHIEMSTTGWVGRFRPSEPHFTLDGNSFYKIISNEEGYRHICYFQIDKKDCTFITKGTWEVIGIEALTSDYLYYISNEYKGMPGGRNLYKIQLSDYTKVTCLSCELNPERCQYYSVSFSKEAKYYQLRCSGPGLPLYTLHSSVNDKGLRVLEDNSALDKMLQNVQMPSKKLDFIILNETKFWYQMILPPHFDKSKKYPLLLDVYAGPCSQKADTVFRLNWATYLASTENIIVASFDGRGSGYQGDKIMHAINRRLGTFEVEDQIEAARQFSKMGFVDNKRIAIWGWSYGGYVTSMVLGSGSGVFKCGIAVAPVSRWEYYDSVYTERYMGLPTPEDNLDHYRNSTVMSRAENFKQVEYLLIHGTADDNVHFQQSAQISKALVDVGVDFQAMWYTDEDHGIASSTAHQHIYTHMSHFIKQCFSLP
Protocol: This cell line was obtained from the American Type Culture Collection (ATCC HTB 37). […] The cell extract was obtained from cells solubilised in a buffer (10 mM Tris HCl, 0.15 M NaCl, 0.04 t.i.u. aprotinin, 0.5% Nonidet-P40, pH 8.0) by centrifugation at 35,000 g for 30 minutes at 4° C. (to remove cell debris).
The DPP-IV assay was carried out as follows:
50 μl of substrate solution (AFC; AFC is amido-4-trifluoromethylcoumarin), final concentration 100 μM, were placed in black microtitre plates. 20 μl of assay buffer (final concentrations 50 mM Tris HCl pH 7.8, 50 mM NaCl, 1% DMSO) was pipetted in. The reaction was started by the addition of 30 μl of solubilised Caco-2 protein (final concentration 0.14 μg of protein per well). The test substances under investigation were typically added prediluted to 20 μl, while the volume of assay buffer was then reduced accordingly. The reaction was carried out at ambient temperature, the incubation period was 60 minutes. […] Dummy values (corresponding to 0% activity) were obtained in mixtures with no Caco-2 protein (volume replaced by assay buffer), control values (corresponding to 100% activity) were obtained in mixtures without any added substance.

[2] = test system: rats; experiment: Tolerability after oral administration in rats; format: in vivo; conditions: oral administration of 30 mg/kg
[3] = extract of human colon carcinoma cell line Caco-2 as DPP IV source, substrate AFC 100 μM, 60 minutes, ambient temperature

SMILES	IC50 [1, 3] [nM]	melting point [°C]	IC50 [1] [nM]	toxic side effects / tolerability [2]
CC(C)=CCn1c(N2CCCC(N)C2)nc2c1c(=O)n(CCc1ccccn1)c(=O)n2C (stereo not drawn) [1(60), 1-[2-(pyridin-2-yl)-ethyl]-3-methyl-7-(3-methyl-2-buten-1-yl)-8-(3-amino-piperidin-1-yl)-xanthine]	57	117 to 120		
CC(C)=CCn1c(N(C)CC(N)C(=O)N(C)C)nc2c1c(=O)n(C)c(=O)n2C (stereo not drawn) [2(131), 1,3-dimethyl-7-(3-methyl-2-buten-1-yl)-8-[N-(2-amino-3-dimethylamino-3-oxo-propyl)-N-methyl-amino]-xanthine×trifluoroacetic acid]			127	
Cn1c(=O)c2c(nc(N3CCCC(N)C3)n2Cc2ccccc2)n(C)c1=O (stereo not drawn) [Example 1(2), 1,3-dimethyl-7-benzyl-8-(3-amino-piperidin-1-yl)-xanthine]				no toxic side effects could be detected

Further lines, with some results ahead:

IC50 [1, 3] [nM]	melting point [°C]	SMILES	IC50 [1] [nM]	toxic side effects / tolerability [2]
66	168 to 170	CC(C)=CCn1c(N2CCC[C@H](N)C2)nc2c1c(=O)n(CCc1cccc(O)c1)c(=O)n2C [2(22), 1-[2-(3-hydroxy-phenyl)-ethyl]-3-methyl-7-(3-methyl-2-buten-1-yl)-8-((S)-3-amino-piperidin-1-yl)-xanthine]		
3		CC(C)=CCn1c(N2CCCC(N)C2)nc2c1c(=O)n(CC(=O)c1ccccc1N)c(=O)n2C (stereo not drawn) [2(136), 1-[2-(2-amino-phenyl)-2-oxo-ethyl]-3-methyl-7-(3-methyl-2-buten-1-yl)-8-(3-amino-piperidin-1-yl)-xanthine]		
55	212 to 215	Cn1c(=O)c2c(nc(N3CCCC(N)C3)n2Cc2ccccc2)n(CC(=O)O)c1=O (stereo not drawn) [Example 6, 1-methyl-3-carboxymethyl-7-benzyl-8-(3-amino-piperidin-1-yl)-xanthine]		
